We go through 48 molecules from PMC9295568, “Dual Inhibition of Vacuolar-ATPase and TMPRSS2 Is Required for Complete Blockade of SARS-CoV-2 Entry into Cells” (Antimicrobial Agents and Chemotherapy, 2022).

As usually defined, the inhibition is the relative decrease from the control value, in per cent.

Structures can show the parent of a compound that is named as a salt.

The subject of the first assay is endosomal acidification in Vero cells. As to the kind of experiment: cells. The format is cell-based. The note with it: 40 µM. As to the method:
Inhibition of endosomal acidification was measured using LysoTracker Red DND-99 (ThermoFisher). […] Data were plotted using Prism 9 (GraphPad).
`C[CH2][Hg][S]c1ccccc1C(=O)[O-].[Na+]` [THIMEROSAL]: the “Percent Inhibition (%) of endosomal acidification” value is 81%.

Still in this assay, the particulars now being: Chlorocebus sabaeus, Vero, read-out: Percent Inhibition (%) of endosomal acidification.
As for `CNCCCC12CCC(c3ccccc31)c1ccccc12` [MAPROTILINE HYDROCHLORIDE], the inhibition at 40 µM was found to be 60%.

For `CSc1ccc2c(c1)N(CCC1CCCCN1C)c1ccccc1S2` (stereo not drawn) [THIORIDAZINE HYDROCHLORIDE], the inhibition at 40 µM was determined as 92%. Still for that read-out and setting: the same measure for `Clc1ccc(C(Cn2ccnc2)OCc2ccsc2Cl)c(Cl)c1` (stereo not drawn) [TIOCONAZOLE]: 94%.

Staying with this assay, now noted: Chlorocebus sabaeus; Vero cells, 40 μM, singlet (n=1); read-out: Percent Inhibition (%) of endosomal acidification.
For the molecule `CN(C)CCCN1c2ccccc2CCc2ccccc21` [IMIPRAMINE HYDROCHLORIDE], the inhibition at 40 µM worked out at 54%.

Regarding `CC1Cc2ccccc2N1NC(=O)c1ccc(Cl)c(S(N)(=O)=O)c1` (stereo not drawn) [INDAPAMIDE], the inhibition at 40 µM was 101%.

For `Clc1ccc(C(Cn2ccnc2)OCc2c(Cl)cccc2Cl)c(Cl)c1` (stereo not drawn) [I[…]], the inhibition at 40 µM turned out to be 79%. For `C#C[C@]1(O)CC[C@H]2[C@@H]3CCC4=CCCC[C@@H]4[C@H]3CC[C@@]21C` [LYNESTRENOL], the inhibition at 40 µM was determined as 86%. The same measure, in the same setting: the value for `OC(c1cc(C(F)(F)F)nc2c(C(F)(F)F)cccc12)C1CCCCN1` (stereo not drawn) [MEFLOQUINE] was 64%; that for `CN1C[C@H](CNC(=O)OCc2ccccc2)C[C@@H]2c3cccc4c3c(cn4C)C[C@H]21` [METERGOLINE] was 53%. `COC(=O)CC[C@@H](C)[C@H]1CC[C@H]2[C@@H]3CC[C@@H]4C[C@H](O)CC[C@]4(C)[C@H]3C[C@H](O)[C@]12C` [METHYL DEOXYCHOLATE]: the inhibition at 40 µM is 63%. On the same count and under the same terms, the same measure for `CN(C)c1ccc2nc3ccc(=[N+](C)C)cc-3sc2c1` [METHYLENE BLUE]: 85%; for `Clc1ccc(COC(Cn2ccnc2)c2ccc(Cl)cc2Cl)c(Cl)c1` (stereo not drawn) [MICONAZOLE NITRATE]: 81%; for `O=C1c2c(O)ccc(O)c2C(=O)c2c(NCCNCCO)ccc(NCCNCCO)c21` [MITOXANTRONE HYDROCHLORIDE]: 80%. For `OC(CNCC(O)C1CCc2cc(F)ccc2O1)C1CCc2cc(F)ccc2O1` (stereo not drawn) [NEBIVOLOL HYDROCHLORIDE], the inhibition at 40 µM worked out at 52%. Turning to `CCCCCCCCCc1ccc(OCCOCCOCCOCCOCCOCCOCCOCCOCCO)cc1` [NONOXYNOL-9], the inhibition at 40 µM was found to be 91%. Same read-out and setting: the value for `Fc1ccc([C@@H]2CCNC[C@H]2COc2ccc3c(c2)OCO3)cc1` [PAROXETINE HYDROCHLORIDE] was 65%; that for `OC1(c2ccc(Cl)c(C(F)(F)F)c2)CCN(CCCC(c2ccc(F)cc2)c2ccc(F)cc2)CC1` [PENFLURIDOL] was 61%. On the same count and under the same terms, the value for `C1CCC(C(CC2CCCCN2)C2CCCCC2)CC1` (stereo not drawn) [PERHEXILINE MALEATE] was 92%. The same measure, in the same setting: the value for `OCCN1CCN(CCCN2c3ccccc3Sc3ccc(Cl)cc32)CC1` [PERPHENAZINE] was 93%; that for `O=c1[nH]c2ccccc2n1C1CCN(CCCC(c2ccc(F)cc2)c2ccc(F)cc2)CC1` [PIMOZIDE] was 54%; that for `CC(=O)c1ccc2c(c1)N(CCCN1CCC(CCO)CC1)c1ccccc1S2` [PIPERACETAZINE] was 78%. Turning to `COc1cc2nc(N3CCN(C(=O)c4ccco4)CC3)nc(N)c2cc1OC` [PRAZOSIN HYDROCHLORIDE], the inhibition at 40 µM is 76%. `COc1cc(NC(C)CCCN)c2ncccc2c1` (stereo not drawn) [PRIMAQUINE PHOSPHATE]: the inhibition at 40 µM worked out at 68%. On the same count and under the same terms, the same measure for `CCCC(C(=O)OCCN(CC)CC)(c1ccccc1)c1ccccc1` [PROADIFEN HYDROCHLORIDE]: 59%.

As to `CN1CCN(CCCN2c3ccccc3Sc3ccc(Cl)cc32)CC1` [PROCHLORPERAZINE EDISYLATE], the inhibition at 40 µM was 73%. As for `Nc1ccc2cc3ccc(N)cc3nc2c1` [PROFLAVINE HEMISULFATE], the inhibition at 40 µM turned out to be 54%. On the same count and under the same terms, the value for `CN(C)CCCN1c2ccccc2Sc2ccccc21` [PROMAZINE HYDROCHLORIDE] was 75%; that for `CC(CN1c2ccccc2Sc2ccccc21)N(C)C` (stereo not drawn) [PROMETHAZINE HYDROCHLORIDE] was 56%; that for `CCN(CC)CCCC(C)Nc1c2ccc(Cl)cc2nc2ccc(OC)cc12` (stereo not drawn) [QUINACRINE HYDROCHLORIDE] was 63%. The same measure, in the same setting: the same measure for `O=C(Nc1ccc(Oc2ccc(Cl)cc2)c(Cl)c1)c1cc(I)cc(I)c1O` [RAFOXANIDE]: 68%; for `O=C(c1ccc(OCCN2CCCCC2)cc1)c1c(-c2ccc(O)cc2)sc2cc(O)ccc12` [RALOXIFENE HYDROCHLORIDE]: 56%; for `CCC(C)(C)C(=O)O[C@H]1C[C@@H](C)C=C2C=C[C@H](C)[C@H](CC[C@@H]3C[C@@H](O)CC(=O)O3)[C@H]21` [SIMVASTATIN]: 84%. `[H]/N=C(/N)N[C@H]1[C@H](O)[C@@H](O)[C@H](O[C@@H]2O[C@@H](C)[C@](O)(C=O)[C@H]2O[C@@H]2O[C@@H](CO)[C@H](O)[C@@H](O)[C@@H]2NC)[C@@H](N/C(N)=N\[H])[C@@H]1O` [STREPTOMYCIN SULFATE]: the inhibition at 40 µM was 101%. Same read-out and setting: the value for `CCCCCCCCNC(C)C(O)c1ccc(SC(C)C)cc1` (stereo not drawn) [SULOCTIDIL] was 94%; that for `CC/C(=C(\c1ccccc1)c1ccc(OCCN(C)C)cc1)c1ccccc1` [TAMOXIFEN CITRATE] was 82%.

As for `CC(C)N1CCN(c2ccc(OCC3COC(Cn4cncn4)(c4ccc(Cl)cc4Cl)O3)cc2)CC1` (stereo not drawn) [TERCONAZOLE], the inhibition at 40 µM turned out to be 64%.

In the case of `CCC(=O)O[C@H]1CC[C@H]2[C@@H]3CCC4=CC(=O)CC[C@]4(C)[C@H]3CC[C@]12C` [TESTOSTERONE PROPIONATE], the inhibition at 40 µM worked out at 64%.

On to `COc1ccc2cc1Oc1ccc(cc1)C[C@H]1c3cc(c(OC)cc3CCN1C)Oc1c(OC)c(OC)cc3c1[C@H](C2)N(C)CC3` [TETRANDRINE], for which the inhibition at 40 µM was 50%. With `CN1CCN(CC/C=C2/c3ccccc3Sc3ccc(S(=O)(=O)N(C)C)cc32)CC1` [THIOTHIXENE], the inhibition at 40 µM worked out at 80%. The same measure, in the same setting: the value for `CCN(CC)CCOc1ccc2c(c1)C(=O)c1cc(OCCN(CC)CC)ccc1-2` [TILORONE] was 59%; that for `Cc1cc2nc3ccc(N(C)C)cc3[s+]c2cc1N` [TOLONIUM CHLORIDE] was 84%.

Staying with this assay, now noted: Vero cells, 40 μM, singlet (n=1).
With `CC1(C)C=Cc2c(c3c(c4c(=O)c(-c5ccc(O)c(O)c5)coc24)OC(C)(C)CC3)O1` [ISOPOMIFERIN], the “Percent Inhibition (%) of endosomal acidification” value was determined as 85%. Same read-out and setting: the value for `CN1CCc2c(c3ccccc3n2Cc2ccccc2)C1.CN1CCc2c(c3ccccc3n2Cc2ccccc2)C1.O=S(=O)(O)c1cccc2c(S(=O)(=O)O)cccc12` [MEBHYDROLIN NAPHTHALENESULFONATE] was 52%; that for `Cc1cc(C(C)(C)CC(C)(C)C)ccc1OCCOCC[N+](C)(C)Cc1ccccc1.[Cl-]` [METHYLBENZETHONIUM CHLORIDE] was 85%; that for `CN1CCC(=C2c3ccccc3CCc3sccc32)CC1.O=C(O)CC(O)C(=O)O` [PIZOTYLINE MALATE] was 50%. Still for that read-out and setting: the value for `COc1ccc2nc3cc(Cl)ccc3c(Nc3cc(CN4CCCC4)c(O)c(CN4CCCC4)c3)c2n1.O=P(O)(O)O.O=P(O)(O)O.O=P(O)(O)O.O=P(O)(O)O` [PYRONARIDINE TETRAPHOSPHATE] was 70%; that for `Cl.N=C(N/N=C/c1ccc(Cl)cc1)N/N=C/c1ccc(Cl)cc1` [ROBENIDINE HYDROCHLORIDE] was 76%.
